Test results from ChEMBL document CHEMBL1201862, “PubChem BioAssay data set” (2004).
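In this assay, cells in 96-well plates receive the compound at five concentrations for 48 hours. Endpoints are linearly interpolated between the surrounding concentrations. Abbreviation: GI50, concentration required for 50% inhibition of growth.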 Active and inactive are the calls of the source. No stated cut-off is given here; in the data, active = GI50 up to about 1.1 µM and inactive = higher.

Assays:
Experiment in all cases: growth of human tumour cells (NCI), 48 h
[1] = tested on: NCI-H460
[2] = tested on: Hs-578T
[3] = tested on: U-251
[4] = tested on: COLO 205
[5] = tested on: SR
[6] = tested on: K562
[7] = tested on: OVCAR-3
[8] = tested on: SW-620
[9] = tested on: HCT-116
[10] = tested on: T47D
[11] = tested on: SK-OV-3
[12] = tested on: ACHN
[13] = tested on: PC-3
[14] = tested on: DU-145
[15] = tested on: CAKI-1
[16] = tested on: OVCAR-5
[17] = tested on: Malme-3M
[18] = tested on: RPMI-8226
[19] = tested on: NCI-H522
[20] = tested on: MDA-MB-231

Compound	GI50 [1]	GI50 [2]	GI50 [3]	GI50 [4]	GI50 [5]	GI50 [6]	GI50 [7]	GI50 [8]	GI50 [9]	GI50 [10]	GI50 [11]	GI50 [12]	GI50 [13]	GI50 [14]	GI50 [15]	GI50 [16]	GI50 [17]	GI50 [18]	GI50 [19]	GI50 [20]
O=C1CS/C(=N/N=C/c2cn(Cc3ccc(Cl)cc3Cl)c3ccccc23)N1	56.4 µM (inactive)	25.8 µM (inactive)	17.3 µM (inactive)	> 100 µM (inactive)	14.1 µM (inactive)	38.8 µM (inactive)	59 µM (inactive)	27.5 µM (inactive)	44.6 µM (inactive)	23.1 µM (inactive)	> 100 µM (inactive)	53.7 µM (inactive)	19.6 µM (inactive)	53.6 µM (inactive)	39.1 µM (inactive)	> 100 µM (inactive)	76.4 µM (inactive)	52.1 µM (inactive)	44.9 µM (inactive)	17 µM (inactive)
O=C(N(O)c1ccccc1Cl)C(O)(c1ccccc1)c1ccccc1	> 100 µM (inactive)	42.5 µM (inactive)	40.6 µM (inactive)	> 100 µM (inactive)	18.1 µM (inactive)	24.4 µM (inactive)	43.5 µM (inactive)	42.7 µM (inactive)	> 100 µM (inactive)	47 µM (inactive)	> 100 µM (inactive)	52.8 µM (inactive)	91.6 µM (inactive)	59.8 µM (inactive)	30.2 µM (inactive)	82 µM (inactive)	> 100 µM (inactive)	23.8 µM (inactive)	33 µM (inactive)	> 100 µM (inactive)
O=C1C(Cl)=C(N2CCN(CCOCCO)CC2)C(=O)c2ncccc21	> 10 µM (inactive)	> 10 µM (inactive)	> 10 µM (inactive)	> 10 µM (inactive)	> 10 µM (inactive)	> 10 µM (inactive)	> 10 µM (inactive)	> 10 µM (inactive)	5.07 µM (inactive)	2.23 µM (inactive)	> 10 µM (inactive)	> 10 µM (inactive)	> 10 µM (inactive)	> 10 µM (inactive)	> 10 µM (inactive)	> 10 µM (inactive)	7.85 µM (inactive)	7.1 µM (inactive)	2.56 µM (inactive)	> 10 µM (inactive)
CC1(C)[C@@H]2C[C@H]1c1cnc(-c3ccccn3)cc1[C@H]2C(O)[C@@H]1c2cc(-c3ccccn3)ncc2[C@H]2C[C@@H]1C2(C)C (stereo not given in full)	0.0472 µM (active)	6.93 µM (inactive)	0.0741 µM (active)	0.161 µM (active)	0.0309 µM (active)	0.124 µM (active)	0.0281 µM (active)	0.17 µM (active)	0.0374 µM (active)	0.505 µM (active)	0.0867 µM (active)	0.113 µM (active)	0.332 µM (active)	0.125 µM (active)	0.106 µM (active)	1.11 µM (active)	0.218 µM (active)	0.0893 µM (active)	0.142 µM (active)	0.338 µM (active)
COc1ccc(-c2oc3cc(O)c(OC)c(O)c3c(=O)c2O)cc1 [BETULETOL]	1.74 µM (inactive)	15.2 µM (inactive)	4.47 µM (inactive)	23.7 µM (inactive)	3.08 µM (inactive)	10.9 µM (inactive)	9.38 µM (inactive)	20.5 µM (inactive)	8.75 µM (inactive)	9.75 µM (inactive)	6.22 µM (inactive)	2.77 µM (inactive)	9.55 µM (inactive)	2.36 µM (inactive)	6.03 µM (inactive)	26.9 µM (inactive)	10.5 µM (inactive)	6.1 µM (inactive)	10.2 µM (inactive)	12.9 µM (inactive)
Cc1c(C)c2c(c(N)c1C#N)C(=O)N(O)C2=O	> 100 µM (inactive)	> 100 µM (inactive)	> 100 µM (inactive)	> 100 µM (inactive)	> 100 µM (inactive)	> 100 µM (inactive)	> 100 µM (inactive)	> 100 µM (inactive)	> 100 µM (inactive)	> 100 µM (inactive)	> 100 µM (inactive)	> 100 µM (inactive)	> 100 µM (inactive)	> 100 µM (inactive)	> 100 µM (inactive)	> 100 µM (inactive)	> 100 µM (inactive)	> 100 µM (inactive)	> 100 µM (inactive)	> 100 µM (inactive)
N/C(CCSCCSCC/C(N)=N\O)=N\O	> 100 µM (inactive)	> 100 µM (inactive)	> 100 µM (inactive)	> 100 µM (inactive)	> 100 µM (inactive)	> 100 µM (inactive)	> 100 µM (inactive)	> 100 µM (inactive)	> 100 µM (inactive)	> 100 µM (inactive)	> 100 µM (inactive)	> 100 µM (inactive)	> 100 µM (inactive)	> 100 µM (inactive)	> 100 µM (inactive)	> 100 µM (inactive)	> 100 µM (inactive)	> 100 µM (inactive)	> 100 µM (inactive)	> 100 µM (inactive)
OC1CC2CCC(C1)N2CCCN1c2ccccc2Sc2ccc(Cl)cc21 (stereo not given)	1.75 µM (inactive)	2.22 µM (inactive)	1.87 µM (inactive)	1.77 µM (inactive)	2.2 µM (inactive)	2.04 µM (inactive)	2.67 µM (inactive)	2.43 µM (inactive)	1.83 µM (inactive)	2.23 µM (inactive)	3.37 µM (inactive)	2.23 µM (inactive)	2.12 µM (inactive)	3.81 µM (inactive)	3.01 µM (inactive)	2.82 µM (inactive)	1.87 µM (inactive)	1.87 µM (inactive)	1.99 µM (inactive)	1.84 µM (inactive)
CC(=O)Nc1nc(O)c2nc(C=O)cnc2n1	> 100 µM (inactive)	> 100 µM (inactive)	> 100 µM (inactive)	> 100 µM (inactive)	> 100 µM (inactive)	> 100 µM (inactive)	> 100 µM (inactive)	> 100 µM (inactive)	> 100 µM (inactive)	> 100 µM (inactive)	> 100 µM (inactive)	> 100 µM (inactive)	> 100 µM (inactive)	> 100 µM (inactive)	> 100 µM (inactive)	> 100 µM (inactive)	> 100 µM (inactive)	> 100 µM (inactive)	> 100 µM (inactive)	> 100 µM (inactive)
